Results reported in patent publication US11591301B2, “Indoleamine-2,3-dioxygenase inhibitor, preparation method therefor and use thereof” (HINOVA PHARMACEUTICALS INC., priority 2018, dated 2023).

What was measured:
human IDO1 protease = human IDO1 protease (Homo sapiens (Human), UniProt P14902); experiment: Inhibitory activity against human IDO1 protease (absorbance test method); assay type: biochemical; settings: IDO1 (His-tag) enzyme, absorbance at 320 nm
Method: IDO1 (His-tag) enzyme(BPS Bioscience), L-tryptophan (Sigma), methylene blue (Sigma), Catalase originated from the liver of cattle (Sigma), L-ascorbic acid (Sigma), glycerol (Sigma), potassium dihydrogen phosphate solution (Sigma), Tween 20 (Sigma), automatic sampling platformLiquid handler (Bravo & Echo), microplate ReaderSpectraMax M5e (Molecular Devices).
2) Test Method of Compounds: The Compounds are Determined by Absorbance Test Method:
The tested compounds are dissolved in DMSO to prepare a high concentration of storage solution. The stock solution of reference compound was diluted with DMSO to prepare a 100× solution. In the first column of the working plate, 8 μL above tested compounds and 8 μL 100× reference compound were respectively added as the highest concentration, and then the highest concentrations were subjected to three times dilution to obtain 11 concentrations and prepare 100× solution. 0.5 μL solution was transferred from the above plate to the detection plate. To each well was added 0.5 μL 100× compound solution. For HPE and ZPE control wells, 0.5 μL 100% DMSO was added. 25 μL 2×IDO1 (His-tag) enzyme solution (containing L-ascorbic acid, methylene blue, and catalase) was added to each well. 25 μL reaction solution without IDO1 (His-tag) enzyme was added into HPE control well. The test plate was centrifugated at 1000 rpm for 1 minute to mix well. Then, the test plate was incubated at room temperature for 30 minutes. 25 μL above 2× substrate (L-tryptophan) solution was added to each well. The test plate was centrifugated at 1000 rpm for 1 minute to mix well. The detection plate was placed on ELISA (SpectraMax M5e), the temperature was set at 25° C., and the absorbance (OD value) was measured at 320 nm every 10 minutes till 60 minutes.
Calculating the increase ratio of absorbance: the slope of the absorbance increase curve from 10 min to 60 min is derived from SpectralMax M5e. The inhibition coefficient of compound was calculated: the inhibition ratio of compound=(the absorbance increase ratio of ZPE control well−the absorbance increase ratio of compound well)/(the absorbance increase ratio of ZPE control well−the absorbance increase ratio of HPE control well)×100. Results was analyzed by Prism 5.0.

[1] = Metabolic stability in rat liver microsomes; assay type: in vitro ADME; settings: rat liver microsomes 0.5 mg/mL; read-out: Rat liver microsomes Half-life t1/2
Method: (§1) Step 1: the mother liquor is prepared according to the composition ratio in Table 3 below:
(§2) Step 2: two experiments were respectively carried out as follows:
(§3) A) Adding NADPH:10 μL of liver microsomes at a concentration of 20 mg/mL and 40 μL of NADPH at a concentration of 10 mM were added to the incubation test. The final concentrations of liver microsomes and NADPH were 0.5 mg/mL and 1 mM, respectively.
(§4) B) Without addition of NADPH:10 μL of liver microsomes at a concentration of 20 mg/mL and 40 μL of high purity water were added to the incubation test. The final concentration of liver microsome was 0.5 mg/mL.
(§5) Step 3: 4 μL of 200 µM positive control or test compound was added and then the reaction was carried out. The positive control in this experiment was Verapamil. The final concentration of test compound was […].
(§6) Step 4: 50 μL was respectively taken out from the reaction solutions at the time points of 0, 15, 30, 45 and 60 min. 4× volumes of acetonitrile and IS (alprazolam at the concentration of 100 nM, labetalol at the concentration of 200 nM, caffeine at the concentration of 200 nM and ketoprofen at the concentration of 2 μM) were added to the reaction solution. The sample was centrifuged at 3,220 gram gravity for 40 minutes. 100 μL high-purity water was added to 100 μL supernatant and then analyzed by LC-MS/MS.
(§7) Step 5: Data analysis: the peak area was determined from the extracted ion chromatogram. The slope value k was determined by linear regression of the natural logarithm from the curve produced by the remaining percentage of the parent drug vs the incubation time.
(§8) In vitro half-life (in vitro t1/2) is determined by the slope value: in vitro t1/2=−(0.693/k)

[2] = Metabolic stability in mouse liver microsomes; assay type: in vitro ADME; settings: mouse liver microsomes 0.5 mg/mL; read-out: Mouse liver microsomes Half-life t1/2
Method: as §1, §2, §3, §4, §5, §6, §7, §8

[3] = Pharmacokinetic experiment in mice (PO); assay type: in vivo; settings: ICR, mouse, plasma, 10 mg/kg, 10 mpk; for Cmax: read-out: Blood concentration Cmax; for AUC: read-out: Curve area AUC; for half-life: read-out: Half life t1/2 (converted); for Tmax: read-out: Peak hour tmax
Method: Experimental animals: ICR mice (Chengdu Dashuo Experimental Animal Co., Ltd.)
5 mg of compound (compound 4 of the present invention, using similar compound INCB-24360 in clinical Phase III as reference compound) was accurately weighed, and the corresponding vehicle was added to a final volume of 10 ml, then mixed by ultrasonic vortexing. The solution at the concentration of 0.5 mg/ml was prepared. The final solution (0.2 ml) prepared was stored at −20° C. for concentration determination. 9 healthy adult ICR mice (20-30 g) were fasted overnight (free access to water), and received the administration volume of 0.2 ml/10 g by gavage; just prior to administration and 0.5, 1, 2, 4, 6, 8, 12, and 24 h after administration, 0.1 ml blood was collected from the retroorbital venous plexus, centrifuged at 4° C. for 5 min to separate the plasma, and stored at −20° C. for testing. Then the concentration of test compound in plasma was measured by LC/MS/MS method.

[4] = Metabolic stability in human liver microsomes; assay type: in vitro ADME; settings: human liver microsomes 0.5 mg/mL; read-out: Human liver microsomes Half-life t1/2
Method: as §1, §2, §3, §4, §5, §6, §7, §8

[5] = target: IDO1 protease activity in Hela cells (Homo sapiens (Human), UniProt P14902); experiment: Inhibition of IDO protease in HeLa cells (IDO/kynurenine experiment, IFN-γ induced); assay type: cell-based; settings: 10 ng/mL IFN-γ, 48 h, OD480 nm, read-out: IC50, inhibitory activity against IDO1 protease activity in Hela cells
Method: 2) Experimental Method for Compound Assay 2.1 Seeding HeLa Cells into 96 Well Plate
The medium was taken out from the flask and the cells were washed with PBS. TrypLE solution was added to the flask to make the cells separate. The cells were further washed once with fresh medium containing 10% FBS, and then re-suspended in the medium until the final concentration was 2.3×10^6/mL. Only cells with activity greater than 90% can be used for detection. HeLa cells were planted into 100 μL suitable growth median 96 well plate at 3000 cells/well. The cells were incubated at 37° C. under 5% CO2 overnight.
The compound was diluted to the concentration of 10 mM with DMSO, that was then continuously diluted 3 times to get 9 concentrations. 5 μL compound was added into 45 μL media as the median dilution (10 times dilution, containing 10% DMSO). 96 μL fresh growth media were added to each well to reach the total volume of 196 μL. 2 μL compound solution was taken from the mid-diluted solution and added to the cells in the wells of the assay plate, and then incubated in a 5% CO2 incubator at 37° C. for 30 minutes. 2 μL human IFN-γ solution was added to reach a total volume of 200 μL, with the final concentration of 10 ng/mL, and the final concentration is 0.1%. The cells were incubated in 5% CO2 incubator at 37° C. for 48 h.
After incubating for another 48 hours in a 5% CO2 incubator at 37° C., 140 μL supernatant was added to each well and transferred to a new 96-well plate. 10 μL of 6.1N CCl3COOH was further added to each well, and incubated at 50° C. for 30 min after sealing. The plate was then centrifuged at 2500 rpm for 10 minutes. 100 μL supernatant in each well was transferred to another 96-well assay plate and mixed with 100 μL of 6% (w/v) p-dimethylaminobenzaldehyde. EnSpire was used to read the plate at OD480 nm.
The average data of HC (high control: 10 ng/mL IFN-γ) and LC (low control: no IFN-γ) were calculated for each screening plate. Percent inhibition of compound well (% inh)=100*(aveHC−cpd well)/(aveHC−ave LC). Finally, GraphPad Prism 6 software was used to calculate the IC50 values of compounds and draw the effect-concentration curve.

IDO1 protease activity in Hela cells, sequence (P14902 whole entry): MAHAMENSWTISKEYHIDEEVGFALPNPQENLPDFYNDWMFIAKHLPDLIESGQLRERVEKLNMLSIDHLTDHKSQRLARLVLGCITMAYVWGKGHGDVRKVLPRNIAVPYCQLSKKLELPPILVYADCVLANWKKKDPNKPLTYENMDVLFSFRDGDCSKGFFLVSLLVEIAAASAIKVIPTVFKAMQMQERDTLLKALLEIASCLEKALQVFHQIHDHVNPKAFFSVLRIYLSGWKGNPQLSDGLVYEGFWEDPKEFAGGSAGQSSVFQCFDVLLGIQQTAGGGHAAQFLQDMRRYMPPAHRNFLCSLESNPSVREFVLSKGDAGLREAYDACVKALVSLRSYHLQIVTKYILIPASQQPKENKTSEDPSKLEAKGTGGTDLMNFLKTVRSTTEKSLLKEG
human IDO1 protease, sequence (P14902 whole entry): as above

Row | SMILES | IC50 (human IDO1 protease) [nM] | half-life at 2 µM [1] [h] | half-life at 2 µM [2] [h] | Cmax [3] [ng/mL] | AUC [3] [ng·h/mL] | half-life [3] [h] | Tmax [3] [h] | half-life at 2 µM [4] [h] | IC50 [5] [nM]
1 | CNS(=O)(=O)CCCNc1nonc1/C(=N/O)Nc1ccc(F)c(Br)c1 [Example 11, N-(3-bromo-4-fluorophenyl)-N′-hydroxyl-4-((3-(N-methylsulfamoyl)propyl)amino)-1,2,5-oxadiazol-3-formamidine] | – | 0.4 | 0.167 | 687 | 845 | 1.15 | 0.5 | 1.55 | 8
2 | CCNS(=O)(=O)CCCNc1nonc1C(=NO)Nc1ccc(F)c(Br)c1 [Example 12, N-(3-bromo-4-fluorophenyl)-N′-hydroxyl-4-((3-(N-ethylsulfamoyl)propyl)amino)-1,2,5-oxadiazol-3-formamidine] | 47 | 0.317 | 0.383 | 704 | 1080 | 2.87 | 0.5 | 2.73 | 12
3 | [2H]C([2H])([2H])NS(=O)(=O)CCCNc1nonc1/C(=N/O)Nc1ccc(F)c(Br)c1 [Example 27, N-(3-bromo-4-fluorophenyl)-N′-hydroxyl-4-((3-(N-(methyl-d3)sulfonyl)propyl)amino)-1,2,5-oxadiazol-3-oximecarboxamide] | – | 0.633 | 0.35 | 469 | 1050 | 2.5 | 0.5 | 5.72 | 10

Continued, values first:

Row | IC50 (human IDO1 protease) [nM] | half-life at 2 µM [1] [h] | half-life at 2 µM [2] [h] | Cmax [3] [ng/mL] | AUC [3] [ng·h/mL] | half-life [3] [h] | Tmax [3] [h] | half-life at 2 µM [4] [h] | IC50 [5] [nM] | SMILES
4 | 19 | 1.73 | 0.8 | 555 | 1320 | 1.28 | 0.67 | 7.45 | – | NS(=O)(=O)CCNc1nonc1C(=NO)Nc1ccc(F)c(Br)c1 [Example 1, N-(3-bromo-4-fluorophenyl)-N′-hydroxyl-4-((2-sulfamoylethyl)amino)-1,2,5-oxadiazol-3-formamidine]
5 | – | 1.22 | 1.45 | – | – | – | – | 29.4 | 12 | NS(=O)(=O)CCCCNc1nonc1C(=NO)Nc1ccc(F)c(Br)c1 [Example 22, N-(3-bromo-4-fluorophenyl)-N′-hydroxyl-4-((4-sulfamoylbutyl)amino)-1,2,5-oxadiazol-3-formamidine]
6 | – | 2.43 | 1.3 | – | – | – | – | 2.62 | – | NS(=O)(=O)NCCNc1nonc1C(=NO)Nc1ccc(F)c(Br)c1 [INCB024360, reference compound]
